One series concerns the target T1, Adenosine receptor A1 (Homo sapiens, UniProt P30542).
T1 sequence (P30542 whole entry): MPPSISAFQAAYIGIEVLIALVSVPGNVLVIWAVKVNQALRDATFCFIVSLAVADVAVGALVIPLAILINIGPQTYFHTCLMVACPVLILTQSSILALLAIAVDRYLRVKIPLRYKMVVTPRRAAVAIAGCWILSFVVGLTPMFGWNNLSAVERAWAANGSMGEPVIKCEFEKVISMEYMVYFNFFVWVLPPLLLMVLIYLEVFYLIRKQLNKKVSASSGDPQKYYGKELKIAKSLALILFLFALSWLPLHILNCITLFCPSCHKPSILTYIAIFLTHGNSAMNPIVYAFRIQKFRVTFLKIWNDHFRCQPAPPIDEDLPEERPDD
Nature of the series: Displacement of […] from human adenosine A1 receptor expressed in CHO cells after 60 mins by liquid scintillation analyzer. The class given is cell-based. (Displacement assays read how much labelled ligand stays bound in the presence of the test substance.)

Series [1] deals with T2, Adenosine receptor A3 (Homo sapiens, UniProt P0DMS8).
T2 sequence (P0DMS8 whole entry): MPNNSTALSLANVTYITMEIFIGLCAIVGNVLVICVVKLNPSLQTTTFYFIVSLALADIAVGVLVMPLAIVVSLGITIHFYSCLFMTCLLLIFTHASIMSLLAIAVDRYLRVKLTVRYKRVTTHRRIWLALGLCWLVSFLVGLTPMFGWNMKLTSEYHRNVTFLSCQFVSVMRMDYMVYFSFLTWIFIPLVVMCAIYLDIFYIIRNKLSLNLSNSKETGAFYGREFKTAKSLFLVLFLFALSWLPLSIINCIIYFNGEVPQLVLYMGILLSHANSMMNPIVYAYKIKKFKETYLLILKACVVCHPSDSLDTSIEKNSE
Nature of the series: Displacement of [125I]I-AB-MECA from human adenosine A3 receptor expressed in CHO cells after 60 mins by gamma counting analysis. Type of series: cell-based.

For series [2], the target named is T3, Adenosine receptor A2a (Homo sapiens, UniProt P29274). Nature of the series: Displacement of [3H]CGS21680 from human adenosine A2A receptor expressed in HEK293 cells after 60 mins by liquid scintillation analyzer. Type of series: cell-based.
In series [3] the target is T4, Adenosine receptor A3 (Homo sapiens) (UniProt P0DMS8).
T4 sequence (whole entry): T2 sequence (P0DMS8 whole entry)
Nature of the series: Agonist activity at human adenosine A3 receptor expressed in CHO cells assessed as decrease in forskolin induced cAMP formation preincubated for 10 mins followed by forskolin challenge measured after 15 mins by AlphaScreen assay relative to adenosine-5'-N- ethyluronamide. On the set-up: concentration or dose not given beside the values. The class given is functional, cell-based. On the technique in general: Changes in cAMP serve as a functional read-out for many G protein-coupled receptors.

Series [4] can be described thus: Cytotoxicity against human MRC9 up to 20 uM. Type of series: cell-based.
The target in series [5] is T3, Adenosine receptor A2a. Nature of the series: Displacement of [3H]CGS21680 from human adenosine A2 receptor expressed in HEK293 cells at 10 uM after 60 mins by liquid scintillation analyzer relative to control. The class given is cell-based.
The target in series [6] is T5, Adenosine receptor A1 (Homo sapiens) (UniProt P30542).
T5 sequence (whole entry): T1 sequence (P30542 whole entry)
Nature of the series: Displacement of […] from human adenosine A1 receptor expressed in CHO cells at 10 uM after 60 mins by liquid scintillation analyzer relative to control. The class given is cell-based.

A short description of series [7]: Cytotoxicity against Sprague-Dawley rat microglial cells assessed as effect on cell viability up to 50 uM after 24 hrs by presto blue assay. The class given is cell-based. As to conditions: microglia.
Another series deals with Microglia. The series can be described thus: Antimigratory activity in Sprague-Dawley rat microglial cells assessed as inhibition of MCP-1 mediated cell migration at 100 nM after 20 mins by inverted confocal microscopy. The class given is functional, cell-based.
Series [8] has as its target T2, Adenosine receptor A3. The series can be described thus: Agonist activity at human adenosine A3 receptor expressed in CHO cells assessed as decrease in forskolin induced cAMP formation preincubated for 10 mins followed by forskolin challenge measured after 15 mins by AlphaScreen assay. Type of series: functional, cell-based.

This is an account of results in ChEMBL document CHEMBL4007510, “N6-Substituted 5'-N-Methylcarbamoyl-4'-selenoadenosines as Potent and Selective A3 Adenosine Receptor Agonists with Unusual Sugar Puckering and Nucleobase Orientation” (J Med Chem, 2017).

Activity calls are given as the source filed them. The rule behind the calls is not given here.

T3 sequence (P29274 whole entry): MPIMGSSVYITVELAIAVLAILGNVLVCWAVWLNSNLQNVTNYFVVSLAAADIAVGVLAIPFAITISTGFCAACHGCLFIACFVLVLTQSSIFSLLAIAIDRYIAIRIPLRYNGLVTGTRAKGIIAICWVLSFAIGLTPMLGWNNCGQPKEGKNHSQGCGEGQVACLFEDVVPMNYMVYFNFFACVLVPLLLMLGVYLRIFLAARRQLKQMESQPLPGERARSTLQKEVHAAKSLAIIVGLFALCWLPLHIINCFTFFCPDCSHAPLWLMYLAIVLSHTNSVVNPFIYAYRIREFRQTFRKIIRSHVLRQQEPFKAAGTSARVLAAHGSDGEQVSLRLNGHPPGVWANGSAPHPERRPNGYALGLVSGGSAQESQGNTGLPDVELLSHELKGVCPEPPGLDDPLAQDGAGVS

Broadly, the Ki is a measure of affinity in units of concentration, obtained from inhibition or displacement. As to `CNC(=O)[C@H]1[Se][C@@H](n2cnc3c(NC4CCC4)nc(Cl)nc32)[C@H](O)[C@@H]1O`, the Ki was determined as 61.7 nM on Adenosine receptor A1, 1 nM on Adenosine receptor A3 [1] and 899 nM at Adenosine receptor A2a [2]. Further, the Activity in series [3] turned out to be 86.7%.

For the compound `CNC(=O)[C@H]1[Se][C@@H](n2cnc3c(NCc4ccccc4Cl)ncnc32)[C@H](O)[C@@H]1O`, the Ki on Adenosine receptor A1 turned out to be 1090 nM; on Adenosine receptor A3 [1], 4.41 nM; at Adenosine receptor A2a [2], 1160 nM. Besides, the Activity in [3] stood at 85%.

`CNC(=O)[C@H]1[Se][C@@H](n2cnc3c(NCc4cccc(Br)c4)ncnc32)[C@H](O)[C@@H]1O`: the Ki at Adenosine receptor A1 came to 220 nM; on Adenosine receptor A3 [1] it was 0.9 nM; on Adenosine receptor A2a [2] it was 560 nM. In addition, the results for the Activity result in series [4] and in series [3] were “Non-Toxic” and 91%, respectively.

`CNC(=O)[C@H]1[Se][C@@H](n2cnc3c(NC4CCCC4)nc(Cl)nc32)[C@H](O)[C@@H]1O`: the inhibition constant Ki at Adenosine receptor A1 stood at 59.4 nM; on Adenosine receptor A3 [1], 3.56 nM; on Adenosine receptor A2a [2], 1120 nM. In series [3], the Activity is 92.5%.

With `CNC(=O)[C@H]1S[C@@H](n2cnc3c(NCc4cccc(I)c4)ncnc32)[C@H](O)[C@@H]1O`, the Activity in [3] is 100%.

Usually inhibition stands for the share of the control response that was lost under treatment. For the compound `CNC(=O)[C@H]1[Se][C@@H](n2cnc3c(NC4CC4)nc(Cl)nc32)[C@H](O)[C@@H]1O`, the inhibition on Adenosine receptor A2a [5] turned out to be 30.3%. The Ki on Adenosine receptor A1 came out at 186 nM; on Adenosine receptor A3 [1], 1.9 nM. Moreover, in series [3], the Activity amounted to 83.6%.

Turning to `CNC(=O)[C@H]1[Se][C@@H](n2cnc3c(NCc4cccc(F)c4)nc(Cl)nc32)[C@H](O)[C@@H]1O`, the inhibition is 42% on Adenosine receptor A2a [5] and 37.3% in series [6]. Besides, the inhibition constant (Ki) at Adenosine receptor A3 [1] stood at 3.35 nM. Besides, the Activity in [3] was determined as 106%.

With `CNC(=O)[C@H]1[Se][C@@H](n2cnc3c(NCc4cccc(F)c4)ncnc32)[C@H](O)[C@@H]1O`, the Ki stood at 3310 nM on Adenosine receptor A1, 2.3 nM at Adenosine receptor A3 [1] and 1350 nM at Adenosine receptor A2a [2]. Further, the values for the Activity entry in [4] and in series [3] were “Non-Toxic” and 74%, respectively.

For `CNC(=O)[C@H]1S[C@@H](n2cnc3c(NCc4cccc(I)c4)nc(Cl)nc32)[C@H](O)[C@@H]1O`, the Activity entry in [7] is “Non-Toxic”. Further, the inhibition entry with Microglia is “Active”.

Take `CNC(=O)[C@H]1[Se][C@@H](n2cnc3c(NC)ncnc32)[C@H](O)[C@@H]1O`: on Adenosine receptor A2a [5], the inhibition came out at 18%. The results for the Ki at Adenosine receptor A1 and on Adenosine receptor A3 [1] were 2060 nM and 1.49 nM, respectively. The Activity in [3] came to 108%.

Regarding `CNC(=O)[C@H]1[Se][C@@H](n2cnc3c(NCc4cccc(Cl)c4)ncnc32)[C@H](O)[C@@H]1O`, the Ki on Adenosine receptor A1 was 570 nM; at Adenosine receptor A3 [1], 3.45 nM; on Adenosine receptor A2a [2], 555 nM. The Activity entry is “Non-Toxic” in [4] and 80% in series [3].

For `CNC(=O)[C@H]1[Se][C@@H](n2cnc3c(NC4CCCC4)ncnc32)[C@H](O)[C@@H]1O`, the Ki amounted to 25.2 nM on Adenosine receptor A1, 7.07 nM on Adenosine receptor A3 [1] and 1090 nM at Adenosine receptor A2a [2]. For the same compound, the Activity in series [3] is 77%.

For the compound `CNC(=O)[C@H]1[Se][C@@H](n2cnc3c(NC4CCC4)ncnc32)[C@H](O)[C@@H]1O`, the Ki was determined as 37.5 nM at Adenosine receptor A1, 1.39 nM on Adenosine receptor A3 [1] and 1080 nM at Adenosine receptor A2a [2]. In series [3], the Activity is 82%.

As for `CNC(=O)[C@H]1[Se][C@@H](n2cnc3c(NCc4cccc(I)c4)nc(Cl)nc32)[C@H](O)[C@@H]1O`, the inhibition constant Ki at Adenosine receptor A1 was found to be 311 nM; on Adenosine receptor A3 [1], 4.2 nM; on Adenosine receptor A2a [2], 1200 nM. The Activity in series [3] worked out at 94.1%.

At Adenosine receptor A2a [5], `CNC(=O)[C@H]1[Se][C@@H](n2cnc3c(NC4CC4)ncnc32)[C@H](O)[C@@H]1O` came in with an inhibition of 54%. Also, the Ki turned out to be 83.5 nM on Adenosine receptor A1 and 2.49 nM on Adenosine receptor A3 [1]. In addition, the Activity in [3] is 92%.

With `CNC(=O)[C@H]1[Se][C@@H](n2cnc3nc(Cl)nc(NCc4cccc(I)c4)c32)[C@H](O)[C@@H]1O`, the inhibition on Adenosine receptor A2a [5] was found to be 23%; in [6], 7%. In addition, the Ki on Adenosine receptor A3 [1] was found to be 7360 nM. Moreover, the Activity in [3] amounted to 14%.

As usually defined, the EC50 is the concentration needed to bring the measured effect to its halfway point. With `CNC(=O)[C@H]1[Se][C@@H](n2cnc3c(NCc4cccc(I)c4)ncnc32)[C@H](O)[C@@H]1O`, on Adenosine receptor A3 [8], the EC50 was found to be 2.7 nM. Moreover, the Ki on Adenosine receptor A1 turned out to be 480 nM; on Adenosine receptor A3 [1] it was 0.57 nM; at Adenosine receptor A2a [2], 1080 nM. Further, the results for the Activity result in [7], in series [4] and in [3] were “Non-Toxic”, “Non-Toxic” and 91%, respectively. Moreover, the inhibition entry in the series with Microglia was “Active”.

On to `CNC(=O)[C@H]1[Se][C@@H](n2cnc3c(NCc4ccc5ccccc5c4)ncnc32)[C@H](O)[C@@H]1O`, for which the Ki on Adenosine receptor A1 came out at 440 nM; on Adenosine receptor A3 [1] it was 1.76 nM; at Adenosine receptor A2a [2], 195 nM. Moreover, the Activity in [3] was 109%.

For `CNC(=O)[C@H]1[Se][C@@H](n2cnc3c(NCc4ccccc4OC)ncnc32)[C@H](O)[C@@H]1O`, the Ki worked out at 1880 nM at Adenosine receptor A1, 3.75 nM at Adenosine receptor A3 [1] and 1260 nM at Adenosine receptor A2a [2]. Further, in series [3], the Activity amounted to 97%.

As for `CNC(=O)[C@H]1[Se][C@@H](n2cnc3ncnc(NCc4cccc(I)c4)c32)[C@H](O)[C@@H]1O`, the inhibition on Adenosine receptor A2a [5] is 13%; in series [6], 26%. In addition, affinity at Adenosine receptor A3 [1] was put at a Ki of 4180 nM. The Activity in series [3] was determined as 0.2%.

`CNC(=O)[C@H]1[Se][C@@H](n2cnc3c(NCc4cccc(Br)c4)nc(Cl)nc32)[C@H](O)[C@@H]1O`: the Ki worked out at 156 nM on Adenosine receptor A1, 1.99 nM at Adenosine receptor A3 [1] and 1230 nM at Adenosine receptor A2a [2]. For the same compound, the Activity in series [3] came to 106%.

`CNC(=O)[C@H]1[Se][C@@H](n2cnc3c(N[C@@H]4C[C@H]4c4ccccc4)ncnc32)[C@H](O)[C@@H]1O`: the Ki at Adenosine receptor A1 is 420 nM; on Adenosine receptor A3 [1] it was 3.93 nM; on Adenosine receptor A2a [2], 2480 nM. For the same compound, the Activity in series [3] stood at 89%.

On to `CNC(=O)[C@H]1[Se][C@@H](n2cnc3c(NCc4cccc(Cl)c4)nc(Cl)nc32)[C@H](O)[C@@H]1O`, for which the values for the inhibitory constant (Ki) on Adenosine receptor A1, on Adenosine receptor A3 [1] and at Adenosine receptor A2a [2] were 232 nM, 1.96 nM and 238 nM, respectively. Moreover, the Activity in series [3] is 99.7%.
